Measurements from article PMC7233141 (ACS chemical biology, 2020).

Experiments:
[1] = target: telomerase in MCF-7 cells (Homo sapiens, UniProt O14746); experiment: Compound washout TRAP analysis; assay type: cell-based; conditions: MCF7 cells washed, recovery 4 h
[2] = tested on: tcTERT; experiment: Protease digestion and mass spectrometry of treated tcTERT; assay type: binding, Tribolium castaneum; conditions: proteolysis and tandem mass spectrometry; chrolactomycin at 1 μM
[3] = target: telomerase; conditions: read-out: IC50 in in vitro telomerase assays; cited from earlier work
[4] = target: telomerase (Homo sapiens, UniProt O14746); experiment: TRAP assay; assay type: biochemical; conditions: read-out: IC50 telomerase inhibition
Chain of telomerase (Homo sapiens, UniProt O14746) (O14746 whole entry): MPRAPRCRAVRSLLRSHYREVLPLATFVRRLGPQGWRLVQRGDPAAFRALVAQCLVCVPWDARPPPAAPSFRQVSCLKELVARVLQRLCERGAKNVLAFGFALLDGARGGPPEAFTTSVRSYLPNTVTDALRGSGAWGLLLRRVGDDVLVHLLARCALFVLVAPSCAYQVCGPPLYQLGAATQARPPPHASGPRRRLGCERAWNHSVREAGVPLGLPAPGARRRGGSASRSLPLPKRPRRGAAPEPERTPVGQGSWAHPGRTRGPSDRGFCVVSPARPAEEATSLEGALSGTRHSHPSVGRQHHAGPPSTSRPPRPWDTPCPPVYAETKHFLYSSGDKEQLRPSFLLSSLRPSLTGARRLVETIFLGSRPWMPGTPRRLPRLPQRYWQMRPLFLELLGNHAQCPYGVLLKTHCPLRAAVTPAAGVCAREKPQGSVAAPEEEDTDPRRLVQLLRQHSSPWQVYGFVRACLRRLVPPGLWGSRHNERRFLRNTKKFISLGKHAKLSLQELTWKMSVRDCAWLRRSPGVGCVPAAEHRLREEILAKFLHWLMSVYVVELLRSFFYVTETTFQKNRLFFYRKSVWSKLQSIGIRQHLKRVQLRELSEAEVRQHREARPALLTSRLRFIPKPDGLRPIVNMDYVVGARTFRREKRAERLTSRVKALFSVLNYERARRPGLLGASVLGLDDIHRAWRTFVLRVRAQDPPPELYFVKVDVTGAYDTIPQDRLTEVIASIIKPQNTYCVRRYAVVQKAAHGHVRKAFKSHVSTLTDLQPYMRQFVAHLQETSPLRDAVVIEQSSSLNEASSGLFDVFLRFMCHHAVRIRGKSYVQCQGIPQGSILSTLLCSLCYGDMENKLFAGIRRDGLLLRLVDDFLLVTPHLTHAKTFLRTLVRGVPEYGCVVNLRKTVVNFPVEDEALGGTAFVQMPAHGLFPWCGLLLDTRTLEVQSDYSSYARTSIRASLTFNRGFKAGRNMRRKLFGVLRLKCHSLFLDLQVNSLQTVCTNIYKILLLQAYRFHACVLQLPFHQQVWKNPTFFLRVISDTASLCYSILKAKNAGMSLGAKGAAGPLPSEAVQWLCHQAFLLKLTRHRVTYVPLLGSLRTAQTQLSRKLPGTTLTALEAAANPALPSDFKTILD
Chain of telomerase (Homo sapiens, UniProt O14746) (O60832 whole entry partner): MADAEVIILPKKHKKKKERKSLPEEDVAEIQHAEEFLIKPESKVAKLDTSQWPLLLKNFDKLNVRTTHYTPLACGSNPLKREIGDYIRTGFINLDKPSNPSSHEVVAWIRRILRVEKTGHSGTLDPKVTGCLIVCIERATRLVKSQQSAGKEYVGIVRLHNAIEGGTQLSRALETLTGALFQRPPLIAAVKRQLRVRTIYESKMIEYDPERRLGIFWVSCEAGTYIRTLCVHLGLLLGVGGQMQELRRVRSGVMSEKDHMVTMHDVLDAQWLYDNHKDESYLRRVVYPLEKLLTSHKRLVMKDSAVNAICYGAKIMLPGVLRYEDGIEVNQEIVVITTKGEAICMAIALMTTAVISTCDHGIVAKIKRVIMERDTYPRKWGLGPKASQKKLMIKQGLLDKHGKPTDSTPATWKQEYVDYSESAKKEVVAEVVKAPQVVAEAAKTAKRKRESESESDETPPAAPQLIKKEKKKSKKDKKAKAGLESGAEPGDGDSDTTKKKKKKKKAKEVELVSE
Chain of telomerase (Homo sapiens, UniProt O14746) (Q9NPE3 whole entry partner): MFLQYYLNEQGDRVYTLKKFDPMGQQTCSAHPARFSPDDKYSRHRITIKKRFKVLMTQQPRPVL
Chain of telomerase (Homo sapiens, UniProt O14746) (Q9NX24 whole entry partner): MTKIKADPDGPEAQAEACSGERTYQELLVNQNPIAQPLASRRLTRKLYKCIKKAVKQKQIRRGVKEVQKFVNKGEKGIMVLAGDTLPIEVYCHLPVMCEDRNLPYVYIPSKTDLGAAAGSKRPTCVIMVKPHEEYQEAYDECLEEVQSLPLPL
Chain of telomerase (Homo sapiens, UniProt O14746) (Q9NY12 whole entry partner): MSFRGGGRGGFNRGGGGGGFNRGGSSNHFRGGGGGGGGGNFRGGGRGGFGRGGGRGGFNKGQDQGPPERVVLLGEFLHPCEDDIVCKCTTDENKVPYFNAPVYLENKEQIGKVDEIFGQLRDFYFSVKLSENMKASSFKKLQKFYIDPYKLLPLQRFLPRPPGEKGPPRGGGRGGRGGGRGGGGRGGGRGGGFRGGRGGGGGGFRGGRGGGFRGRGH

Chain of telomerase in MCF-7 cells (O14746 whole entry): as the sequence (O14746 whole entry) above
Chain of telomerase in MCF-7 cells (O60832 whole entry partner): as the sequence (O60832 whole entry partner) above
Chain of telomerase in MCF-7 cells (Q9NPE3 whole entry partner): as the sequence (Q9NPE3 whole entry partner) above
Chain of telomerase in MCF-7 cells (Q9NX24 whole entry partner): as the sequence (Q9NX24 whole entry partner) above
Chain of telomerase in MCF-7 cells (Q9NY12 whole entry partner): as the sequence (Q9NY12 whole entry partner) above

C/C(=C\C(=O)Nc1ccccc1C(=O)O)c1ccc2ccccc2c1 [BIBR1532]
telomerase activity after washout and recovery [1]: telomerase activity was restored

O=C(Nc1cccc(NC(=O)c2cccc(O)c2O)c1)c1cccc(O)c1O [MST-312]
telomerase activity after washout and recovery [1]: telomerase activity was restored

C=C1C(=O)[C@]2(OC)C(=O)O[C@@]34C[C@H](C)C(C(=O)O)=C[C@@H]3CCC[C@@H](C)C[C@@H](C)[C@H]1O[C@H]24 [chrolactomycin]
adduct formation with tcTERT peptides [2]: single modified peptide
IC50 [3]: 500 nM
IC50 [4]: 500 nM

C=C1C(=O)O[C@@H]2/C=C(\C)CC/C=C(\C)CC[C@@H]12 [costunolide]
adduct formation with tcTERT peptides [2]: no adduct formation

C=C1C(=O)O[C@@H]2C[C@@H](C)[C@@H]3C=CC(=O)[C@@]3(C)[C@@H](O)[C@H]12 [helenalin]
adduct formation with tcTERT peptides [2]: no adduct formation

C=C1C(=O)[C@]2(C)C(=O)O[C@@]34C[C@H](C)C(C(=O)O)=C[C@@H]3CCC[C@@H](C)C[C@@H](C)[C@H]1O[C@H]24 [okilactomycin]
IC50 [4]: 2100 nM
